Columns and labels:
[1] = molecular target: ER (Homo sapiens (Human), UniProt P03372); experiment: In-cell western blot analysis of relative ER percentage (Compounds B1-B278); format: cell-based; conditions: ER degradation, 16 hours, read-out: ICW DC50
Description: In-cell western blot analysis. Cells are seeded in multi-well plates (e.g., at 40,000 or 10,000 cells/well). Diluted compounds at certain concentration are added (final 0.5% DMSO) and cells are incubated for […] (e.g., 16 hours). Formaldehyde (e.g., PBS:FA=9:1) is added and followed by washing with PBS. The cells are blocked with Licor blocking buffer (Li-Cor). The relative ER percentage in treated cells are obtained by comparing the values of treated wells to those in untreated and DMSO-treated wells as 100%.
In-cell western blot analysis. a. seed cells in black-sided/clear bottom 96- or 384-well plates at 40,000 or 10,000 cells/well, overnight; b. add diluted compounds (final 0.5% DMSO), 16 hours. 16 h later, remove medium, add 100 μL or 25 μL of 3.7-4.0% formaldehyde (PBS:FA=9:1), RT 20 min, no shaking; c. wash with PBS, and permeabilized with 100 μL or 25 μL/well of 1×PBS+0.1% Triton X-100 10 minutes; d. block with 100 μL or 25 μL Licor blocking buffer (Li-Cor), RT 1 h, moderate shaking; d. Add 100 μL or 25 μL of anti-ER (cs-8644, 1:500-1,000)+GAPDH(Millipore MAB374, 1:1000) in Block+0.05% Tween 20. RT 2 h, gentle shaking. Negative control: cells plus secondary antibodies (no primary antibodies); e. wash×4 with PBS +0.05-0.1% Tween 20, gentel shaking; f. anti-rabbit-680 and anti-mouse-800 (both 1:1000 in LiCor block +0.05% Tween20, RT 1 h, gentle shaking, no light. LI-COR: 0.2% to reduce background; g. wash×4 with PBS+0.05% Tween 20, gental shaking; h. add 100 μL or 25 μL of PBS to each well and read on CLX plate reader. The relative ER percentage in treated cells were obtained by comparing the values of treated wells to those in untreated and DMSO-treated wells as 100%.

[2] = Cell growth assay (WST-8) (Compounds B1-B278); format: cell-based; conditions: 96 h; T47D cell line; WST-8, 4 days; read-out: Cell Growth Inhibition in T47D cell line IC50
Description: Cell Growth Assay. The cells are seeded at certain concentration (e.g., at 1500/well) in multi-well plates overnight. Cells are subsequently treated with the compounds. A certain period of time (e.g., 4 days) after the compound treatment, 10% WST-8 reagent is added to the culture medium and incubate under certain condiction (e.g., in a CO2 incubator at 37° C. for 2.5 hours). The absorbance is measured on each sample using a microplate reader at certain wavelength (e.g., 450 nm). The relative absorbance is calculated against the vehicle control from three individually repeats.
Cell Growth Assay. The cells were seeded at 1500/well in 96 well plates overnight. One day after the seeding, they were treated with indicated doses of compounds respectively. 4 days after the compound treatment, 10% WST-8 reagent was added to the culture medium and incubate in a CO2 incubator at 37° C. for 2.5 hours. Before reading, the plate was mixed gently on an orbital shaker for one minute to ensure homogeneous distribution of color. The absorbance was measured of each sample using a microplate reader at a wavelength of 450 nm. The relative absorbance was calculated against the vehicle control from three individually repeats.

ER, sequence (P03372 whole entry): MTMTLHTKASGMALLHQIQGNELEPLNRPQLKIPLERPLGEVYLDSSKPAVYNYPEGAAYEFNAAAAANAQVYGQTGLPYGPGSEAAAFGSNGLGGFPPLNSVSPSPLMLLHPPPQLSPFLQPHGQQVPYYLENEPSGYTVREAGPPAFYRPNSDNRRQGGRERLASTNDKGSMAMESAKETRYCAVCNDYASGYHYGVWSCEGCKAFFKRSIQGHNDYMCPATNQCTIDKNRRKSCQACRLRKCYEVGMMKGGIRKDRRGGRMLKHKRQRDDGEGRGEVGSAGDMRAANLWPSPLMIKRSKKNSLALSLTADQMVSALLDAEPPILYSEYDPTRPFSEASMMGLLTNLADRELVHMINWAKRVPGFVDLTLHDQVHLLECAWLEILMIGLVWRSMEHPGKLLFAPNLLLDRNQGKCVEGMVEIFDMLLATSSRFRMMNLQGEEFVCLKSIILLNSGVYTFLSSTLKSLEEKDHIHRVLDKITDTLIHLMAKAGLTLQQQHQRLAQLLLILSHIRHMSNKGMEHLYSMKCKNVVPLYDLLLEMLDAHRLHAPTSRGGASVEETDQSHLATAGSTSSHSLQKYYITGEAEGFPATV

Compound | DC50 [1] [nM] | IC50 [2] [nM]
C[C@@H]1Cc2c([nH]c3ccccc23)[C@@H](c2c(F)cc(NC3CN(C(=O)CN4CCN5c6cc7c(cc6OC[C@@H]5C4)C(=O)N(C4CCC(=O)NC4=O)C7)C3)cc2F)N1CC(F)(F)CO (stereo partly drawn) [Compound B118, 3-((S)-3-(2-(3-((4-((1R,3R)-2-(2,2-difluoro-3-hydroxypropyl)-3-methyl-2,3,4,9-tetrahydro-1H-pyrido[3,4-b]indol-1-yl)-3,5-difluorophenyl)amino)azetidin-1-yl)-2-oxoethyl)-8-oxo-1,2,3,4,4a,5,8,10-octahydro-9H-pyrazino[1′,2′:4,5][1,4]oxazino[2,3-f]isoindol-9-yl)piperidine-2,6-dione] | 10 to 100 | 1 to 10
C[C@@H]1Cc2c([nH]c3ccccc23)[C@@H](c2c(F)cc(C3CCN(C(=O)CN4CCN5c6cc7c(cc6OC[C@@H]5C4)C(=O)N(C4CCC(=O)NC4=O)C7)CC3)cc2F)N1CC(F)F (stereo partly drawn) [Compound B119, 3-((S)-3-(2-(4-(4-((1R,3R)-2-(2,2-difluoroethyl)-3-methyl-2,3,4,9-tetrahydro-1H-pyrido[3,4-b]indol-1-yl)-3,5-difluorophenyl)piperidin-1-yl)-2-oxoethyl)-8-oxo-1,2,3,4,4a,5,8,10-octahydro-9H-pyrazino[1′,2′:4,5][1,4]oxazino[2,3-f]isoindol-9-yl)piperidine-2,6-dione] | 10 to 100 | < 1
C[C@@H]1Cc2c([nH]c3ccccc23)[C@@H](c2cnc(N3CC4(CCC(CN5CCN6c7cc8c(cc7OC[C@@H]6C5)C(=O)N(C5CCC(=O)NC5=O)C8)CC4)C3)nc2)N1CC(F)F (stereo partly drawn) [Compound B120, 3-((S)-3-((2-(5-((1R,3R)-2-(2,2-difluoroethyl)-3-methyl-2,3,4,9-tetrahydro-1H-pyrido[3,4-b]indol-1-yl)pyrimidin-2-yl)-2-azaspiro[3.5]nonan-7-yl)methyl)-8-oxo-1,2,3,4,4a,5,8,10-octahydro-9H-pyrazino[1′,2′:4,5][1,4]oxazino[2,3-f]isoindol-9-yl)piperidine-2,6-dione] | 10 to 100 | 1 to 10
C[C@@H]1Cc2c([nH]c3ccccc23)[C@@H](c2cnc(N3CCC(CCN4CCN5c6cc7c(cc6OC[C@@H]5C4)C(=O)N(C4CCC(=O)NC4=O)C7)CC3)nc2)N1CC(F)F (stereo partly drawn) [Compound B121, 3-((S)-3-(2-(1-(5-((1R,3R)-2-(2,2-difluoroethyl)-3-methyl-2,3,4,9-tetrahydro-1H-pyrido[3,4-b]indol-1-yl)pyrimidin-2-yl)piperidin-4-yl)ethyl)-8-oxo-1,2,3,4,4a,5,8,10-octahydro-9H-pyrazino[1′,2′:4,5][1,4]oxazino[2,3-f]isoindol-9-yl)piperidine-2,6-dione] | < 10 | 1 to 10
C[C@@H]1Cc2c([nH]c3ccccc23)[C@@H](c2cnc(N3CC[C@H](CCN4CCN5c6cc7c(cc6OC[C@@H]5C4)C(=O)N(C4CCC(=O)NC4=O)C7)C3)nc2)N1CC(F)F (stereo partly drawn) [Compound B122, 3-((S)-3-(2-((S)-1-(5-((1R,3R)-2-(2,2-difluoroethyl)-3-methyl-2,3,4,9-tetrahydro-1H-pyrido[3,4-b]indol-1-yl)pyrimidin-2-yl)pyrrolidin-3-yl)ethyl)-8-oxo-1,2,3,4,4a,5,8,10-octahydro-9H-pyrazino[1′,2′:4,5][1,4]oxazino[2,3-f]isoindol-9-yl)piperidine-2,6-dione] | 10 to 100 | 1 to 10
C[C@@H]1Cc2c([nH]c3ccccc23)[C@@H](c2cnc(N3CCC(OCCN4CCN5c6cc7c(cc6OC[C@@H]5C4)C(=O)N([C@@H]4CCC(=O)NC4=O)C7)CC3)nc2)N1CC(F)F [Compound B123, (R)-3-((S)-3-(2-((1-(5-((1R,3R)-2-(2,2-difluoroethyl)-3-methyl-2,3,4,9-tetrahydro-1H-pyrido[3,4-b]indol-1-yl)pyrimidin-2-yl)piperidin-4-yl)oxy)ethyl)-8-oxo-1,2,3,4,4a,5,8,10-octahydro-9H-pyrazino[1′,2′:4,5][1,4]oxazino[2,3-f]isoindol-9-yl)piperidine-2,6-dione] | 10 to 100 | 1 to 10
C[C@@H]1Cc2c([nH]c3ccccc23)[C@@H](c2cnc(N3CC4(CCC(CN5CCN6c7ccc8c(c7N(C)C[C@@H]6C5)CN(C5CCC(=O)NC5=O)C8=O)CC4)C3)nc2)N1CC(F)F (stereo partly drawn) [Compound B125, 3-((S)-7-((2-(5-((1R,3R)-2-(2,2-difluoroethyl)-3-methyl-2,3,4,9-tetrahydro-1H-pyrido[3,4-b]indol-1-yl)pyrimidin-2-yl)-2-azaspiro[3.5]nonan-7-yl)methyl)-4-methyl-1-oxo-3,4,5,5a,6,7,8,9-octahydropyrazino[1,2-a]pyrrolo[3,4-f]quinoxalin-2(1H)-yl)piperidine-2,6-dione] | 10 to 100 | > 10
C[C@@H]1Cc2c([nH]c3ccccc23)[C@@H](c2cnc(N3CCC4(CC3)CC(CN3CCN5c6ccc7c(c6N(C)C[C@@H]5C3)CN(C3CCC(=O)NC3=O)C7=O)C4)nc2)N1CC(F)F (stereo partly drawn) [Compound B126, 3-((S)-7-((7-(5-((1R,3R)-2-(2,2-difluoroethyl)-3-methyl-2,3,4,9-tetrahydro-1H-pyrido[3,4-b]indol-1-yl)pyrimidin-2-yl)-7-azaspiro[3.5]nonan-2-yl)methyl)-4-methyl-1-oxo-3,4,5,5a,6,7,8,9-octahydropyrazino[1,2-a]pyrrolo[3,4-f]quinoxalin-2(1H)-yl)piperidine-2,6-dione] | 10 to 100 | > 10
C[C@@H]1Cc2c([nH]c3ccccc23)[C@@H](c2cnc(N3CCC(CN4CCC5(CCOc6c5ccc5c6CN(C6CCC(=O)NC6=O)C5=O)CC4)CC3)nc2)N1CC(F)F (stereo partly drawn) [Compound B127, 3-(1-((1-(5-((1R,3R)-2-(2,2-difluoroethyl)-3-methyl-2,3,4,9-tetrahydro-1H-pyrido[3,4-b]indol-1-yl)pyrimidin-2-yl)piperidin-4-yl)methyl)-7′-oxo-2′,3′,7′,9′-tetrahydro-8′H-spiro[piperidine-4,4′-pyrano[2,3-e]isoindol]-8′-yl)piperidine-2,6-dione] | 10 to 100 | 1 to 10
COc1cc(N2CCC3(CCN(C(=O)CN4Cc5cc6c(cc5C4)C(=O)N(C4CCC(=O)NC4=O)C6=O)CC3)CC2)ccc1[C@@H]1c2[nH]c3ccccc3c2C[C@@H](C)N1CC(F)F (stereo partly drawn) [Compound B128, 6-(2-(9-(4-((1R,3R)-2-(2,2-difluoroethyl)-3-methyl-2,3,4,9-tetrahydro-1H-pyrido[3,4-b]indol-1-yl)-3-methoxyphenyl)-3,9-diazaspiro[5.5]undecan-3-yl)-2-oxoethyl)-2-(2,6-dioxopiperidin-3-yl)-6,7-dihydropyrrolo[3,4-f]isoindole-1,3(2H,5H)-dione] | < 10 | 1 to 10
COc1cc(N2CC3(CCC(CN4CCC5(CC4)COc4c5ccc5c4CN(C4CCC(=O)NC4=O)C5=O)CC3)C2)ccc1[C@@H]1c2[nH]c3ccccc3c2C[C@@H](C)N1CC(F)F (stereo partly drawn) [Compound B129, 3-(1′-((2-(4-((1R,3R)-2-(2,2-difluoroethyl)-3-methyl-2,3,4,9-tetrahydro-1H-pyrido[3,4-b]indol-1-yl)-3-methoxyphenyl)-2-azaspiro[3.5]nonan-7-yl)methyl)-6-oxo-6,8-dihydro-2H,7H-spiro[furo[2,3-e]isoindole-3,4′-piperidin]-7-yl)piperidine-2,6-dione] | 10 to 100 | < 1
COc1c2c(cc3c1CN(C1CCC(=O)NC1=O)C3=O)CN(CC(=O)N1CCC3(CC1)CCN(c1cc(F)c([C@@H]4c5[nH]c6ccccc6c5C[C@@H](C)N4CC(F)F)c(F)c1)CC3)C2 (stereo partly drawn) [Compound B130, 3-(6-(2-(9-(4-((1R,3R)-2-(2,2-difluoroethyl)-3-methyl-2,3,4,9-tetrahydro-1H-pyrido[3,4-b]indol-1-yl)-3,5-difluorophenyl)-3,9-diazaspiro[5.5]undecan-3-yl)-2-oxoethyl)-4-methoxy-1-oxo-3,5,6,7-tetrahydropyrrolo[3,4-f]isoindol-2(1H)-yl)piperidine-2,6-dione] | 10 to 100 | 1 to 10

From US20260007681A1, “INDOLE DERIVATIVES AS ESTROGEN RECEPTOR DEGRADERS” (REGENTS OF THE UNIVERSITY OF MICHIGAN, priority 2022, published 2026)
